{"source": "patent US7091033B2", "about": "“Array of toxicologically relevant canine genes and uses thereof” (Phase-1 Molecular Toxicology, Inc., priority 2000, dated 2006)", "tested_on": "canine genes differentially expressed in organs (liver, spleen, kidney, testes, heart, thymus)", "experiment": "Transcriptome profiling / differential display of tissues from canines exposed to an agent versus vehicle (reverse transcription, PCR, reamplification of bands, sequencing)", "format": "in vivo"}
{"smiles": "N.N.[Cl][Pt][Cl]", "note": "[cisplatin]", "values": [{"measurement": "Expression Pattern", "setting": "Band # CTP31A, No significant match", "result": "upregulated in cisplatin"}, {"measurement": "Expression Pattern", "setting": "Band # CTP41B, Homo sapiens mRNA for AB037813", "result": "repressed in cisplatin"}, {"measurement": "Expression Pattern", "setting": "Band # CTP47G, No significant match", "result": "induced with cisplatin"}, {"measurement": "Expression Pattern", "setting": "Band # CTP50A, No significant match", "result": "induced with cisplatin"}, {"measurement": "Expression Pattern", "setting": "Band # CTP51A, Homo sapiens intestinal 1 AF219991", "result": "induced with cisplatin"}, {"measurement": "Expression Pattern", "setting": "Band # CTP52B, No significant match", "result": "induced with cisplatin"}, {"measurement": "Expression Pattern", "setting": "Band # CTP53A, No significant match", "result": "induced with cisplatin"}, {"measurement": "Expression Pattern", "setting": "Band # CTP59A, Homo sapiens cyclin D2 (XM_012143)", "result": "induced with cisplatin"}, {"measurement": "Expression Pattern", "setting": "Band # CTP62A, No significant match", "result": "induced with cisplatin"}, {"measurement": "Expression Pattern", "setting": "Band # CTP63A, No significant match", "result": "induced with cisplatin"}, {"measurement": "Expression Pattern", "setting": "Band # CTP64B, No significant match", "result": "induced with cisplatin"}, {"measurement": "Expression Pattern", "setting": "Band # CTP67A, clone RP5-1071L10 on cl AL133228", "result": "repressed with cisplatin"}, {"measurement": "Expression Pattern", "setting": "Band # CTP68F, Oryctolagus cuniculus Ne U09823", "result": "repressed with cisplatin"}, {"measurement": "Expression Pattern", "setting": "Band # CTP70A, No significant match", "result": "repressed with cisplatin"}, {"measurement": "Expression Pattern", "setting": "Band # CTP72B, No significant match", "result": "repressed with cisplatin"}, {"measurement": "Expression Pattern", "setting": "Band # CTP73A, Homo sapiens chromosor AC026201", "result": "repressed with cisplatin"}, {"measurement": "Expression Pattern", "setting": "Band # CTP73B, No significant match", "result": "repressed with cisplatin"}, {"measurement": "Expression Pattern", "setting": "Band # CTP74A, No significant match", "result": "repressed with carbo, trans and cisplatin"}, {"measurement": "Expression Pattern", "setting": "Band # CTP75C, No significant match", "result": "repressed with carbo, trans and cisplatin"}, {"measurement": "Expression Pattern", "setting": "Band # CTP76B, No significant match", "result": "induced with cisplatin"}, {"measurement": "Expression Pattern", "setting": "Band # CTP77D, No significant match", "result": "repressed with cisplatin"}, {"measurement": "Expression Pattern", "setting": "Band # CTP78B, Homo sapiens SON DNA XM_009738", "result": "induced with cisplatin"}, {"measurement": "Expression Pattern", "setting": "Band # CTP79B, No significant match", "result": "induced with cisplatin"}, {"measurement": "Expression Pattern", "setting": "Band # CTP80A, Homo sapiens WDR4 ger AB039887", "result": "repressed with cisplatin"}, {"measurement": "Expression Pattern", "setting": "Band # CTP81A, No significant match", "result": "induced with cisplatin"}, {"measurement": "Expression Pattern", "setting": "Band # CTP85D, Homo sapiens Rho-assoc XM_008814", "result": "repressed with carbo, trans and cisplatin"}, {"measurement": "Expression Pattern", "setting": "Band # CTP86F, Homo sapiens chromodoi NM_001272", "result": "induced with cisplatin"}, {"measurement": "Expression Pattern", "setting": "Band # CTP87B, Homo sapiens tetratricopi XM_009760", "result": "induced with cisplatin"}, {"measurement": "Expression Pattern", "setting": "Band # CTP88A, Rattus norvegicus ribosor NM_022506", "result": "repressed with cisplatin"}, {"measurement": "Expression Pattern", "setting": "Band # CTP89B, Homo sapiens genomic [AP003473", "result": "induced with cisplatin"}, {"measurement": "Expression Pattern", "setting": "Band # CTP90A, Homo sapiens clone 248(AF070622)", "result": "induced with cisplatin"}, {"measurement": "Expression Pattern", "setting": "Band # CTP92A, No significant match", "result": "induced with cisplatin"}, {"measurement": "Expression Pattern", "setting": "Band # CTP92C, Human DNA sequence fn AL133286", "result": "induced with cisplatin"}, {"measurement": "Expression Pattern", "setting": "Band # CTP93F, clone RP1-211D12 on ch Z93016", "result": "induced with cisplatin"}, {"measurement": "Expression Pattern", "setting": "Band # CTP94B, Homo sapiens clathrin, h NM_008305", "result": "induced with cisplatin"}, {"measurement": "Expression Pattern", "setting": "Band # CTP99A, No significant match", "result": "repressed with cisplatin"}, {"measurement": "Expression Pattern", "setting": "Band # CTP100A, COX15 (yeast) homolog, BC002382", "result": "induced with cisplatin"}, {"measurement": "Expression Pattern", "setting": "Band # CTP103JJ, No significant match", "result": "induced with cisplatin"}, {"measurement": "Expression Pattern", "setting": "Band # CTP104I, No significant match", "result": "repressed with cisplatin"}, {"measurement": "Expression Pattern", "setting": "Band # CTP109P, No significant match", "result": "induced with cisplatin"}, {"measurement": "Expression Pattern", "setting": "Band # CTP110A, No significant match", "result": "induced with cisplatin"}, {"measurement": "Expression Pattern", "setting": "Band # CTP111A, No significant match", "result": "induced with cisplatin"}, {"measurement": "Expression Pattern", "setting": "Band # CTP112B, Bos taurus peroxiredoxin AF305561", "result": "induced with cisplatin"}, {"measurement": "Expression Pattern", "setting": "Band # CTP113A, Box taurus ribosomal proi AF063243", "result": "induced with cisplatin"}, {"measurement": "Expression Pattern", "setting": "Band # CTP115B, Homo sapiens chromosoi AC005899", "result": "induced with cisplatin"}, {"measurement": "Expression Pattern", "setting": "Band # CTP116A, No significant match", "result": "induced with cisplatin"}, {"measurement": "Expression Pattern", "setting": "Band # CTP117B, Homo sapiens similar to XM_017740", "result": "induced with cisplatin"}, {"measurement": "Expression Pattern", "setting": "Band # CTP119J, H. sapiens SPR-2 mRNA 1X68560 S52", "result": "induced with cisplatin"}, {"measurement": "Expression Pattern", "setting": "Band # CTP121D, Human ribosomal protein U43701", "result": "induced with cisplatin"}, {"measurement": "Expression Pattern", "setting": "Band # CTP124B, No significant match", "result": "induced with cisplatin"}, {"measurement": "Expression Pattern", "setting": "Band # CTP126A, No significant match", "result": "induced with cisplatin"}, {"measurement": "Expression Pattern", "setting": "Band # CTP131B, Homo sapiens similar to s XM_006087", "result": "induced with cisplatin"}, {"measurement": "Expression Pattern", "setting": "Band # CTP133B, No significant match", "result": "induced with cisplatin"}, {"measurement": "Expression Pattern", "setting": "Band # CTP134A, No significant match", "result": "induced with cisplatin"}, {"measurement": "Expression Pattern", "setting": "Band # CTP135A, Homo sapiens cDNA FLJAK021570", "result": "induced with cisplatin"}, {"measurement": "Expression Pattern", "setting": "Band # CTP300B, Homo sapiens utrophin (I-NM_007124)", "result": "repressed with cisplatin"}, {"measurement": "Expression Pattern", "setting": "Band # CTP304B, Homo sapiens unknov XM_002211", "result": "induced with cisplatin"}, {"measurement": "Expression Pattern", "setting": "Band # CTP306B, No significant match", "result": "induced with cisplatin"}, {"measurement": "Expression Pattern", "setting": "Band # CTP308KK, No significant match", "result": "induced with cisplatin"}, {"measurement": "Expression Pattern", "setting": "Band # CTP309A, No significant match", "result": "repressed with cisplatin"}]}
{"smiles": "COc1cc([C@@H]2c3cc4c(cc3[C@@H](O[C@@H]3O[C@@H]5CO[C@@H](C)O[C@H]5[C@H](O)[C@H]3O)[C@H]3COC(=O)[C@H]23)OCO4)cc(OC)c1O", "note": "[Etoposide]", "values": [{"measurement": "Expression Pattern", "setting": "Band # CTP1D, No significant match", "result": "upregulated with Etoposide, caffeine"}, {"measurement": "Expression Pattern", "setting": "Band # CTP1G, No significant match", "result": "upregulated with Etoposide, caffeine"}, {"measurement": "Expression Pattern", "setting": "Band # CTP7B, No significant match", "result": "upregulated in Etoposide treated"}, {"measurement": "Expression Pattern", "setting": "Band # CTP8A, No significant match", "result": "repressed in Etoposide treated"}, {"measurement": "Expression Pattern", "setting": "Band # CTP8C, Human DNA sequence fn HSJ734P14", "result": "repressed in Etoposide treated"}, {"measurement": "Expression Pattern", "setting": "Band # CTP10Y, Canis familiaris mitochon CFU96639", "result": "upregulated in Etoposide treated"}, {"measurement": "Expression Pattern", "setting": "Band # CTP11A, cyclin-dependent kinase i BC001935", "result": "upregulated in Etoposide treated"}, {"measurement": "Expression Pattern", "setting": "Band # CTP16B, Homo sapiens cDNA FLJAK000548", "result": "repressed in Etoposide treated"}, {"measurement": "Expression Pattern", "setting": "Band # CTP17G, No significant match", "result": "repressed in Etoposide treated"}, {"measurement": "Expression Pattern", "setting": "Band # CTP18B, No significant match", "result": "upregulated in Etoposide treated"}, {"measurement": "Expression Pattern", "setting": "Band # CTP19F, Homo sapiens chromosor AC008651", "result": "upregulated in Etoposide treated"}, {"measurement": "Expression Pattern", "setting": "Band # CTP34A, Homo sapiens ribosomal NM_001032", "result": "repressed in Etoposide"}]}
{"smiles": "COc1cc([C@@H]2c3cc4c(cc3[C@@H](O[C@@H]3O[C@@H]5CO[C@@H](C)O[C@H]5[C@H](O)[C@H]3O)[C@H]3COC(=O)[C@H]23)OCO4)cc(OC)c1O", "note": "[etoposide]", "values": [{"measurement": "Expression Pattern", "setting": "Band # CTP3B, Homo Sapien N-myc dow BC003175, larger band of doublet", "result": "doublet-larger band is upregulated"}, {"measurement": "Expression Pattern", "setting": "Band # CTP27C, Homo sapiens CTCL turn AF177227", "result": "repressed with etoposide and aspirin"}, {"measurement": "Expression Pattern", "setting": "Band # CTP37A, Homo sapiens nuclear fax AF167569", "result": "repressed with etoposide"}, {"measurement": "Expression Pattern", "setting": "Band # CTP143B, No significant match", "result": "induced with etoposide and caffeine"}, {"measurement": "Expression Pattern", "setting": "Band # CTP150A, No significant match", "result": "repressed with etoposide"}, {"measurement": "Expression Pattern", "setting": "Band # CTP150C, Canis familiaris mitochon CFU96639", "result": "repressed with etoposide"}, {"measurement": "Expression Pattern", "setting": "Band # CTP156J, Human DNA sequence fn AL136120", "result": "induced with etoposide and caffeine"}, {"measurement": "Expression Pattern", "setting": "Band # CTP216A, Canis familiaris heat-shoc U19368", "result": "repressed with etoposide"}]}
